Measured values as given in patent publication US20220096516A1, “OLIGONUCLEOTIDE MOLECULE AND APPLICATION THEREOF IN TUMOR THERAPY” (Ractigen Therapeutics, priority 2019, published 2022).
d = 2'-deoxy (DNA); r = 2'-OH (RNA)

What was measured:
Assay type in all cases: cell-based, human
HepG2 cells = assay: Cell viability by CCK-8 method, HepG2; details: HepG2, 10 nM, 72 h, FIG. 6B
Procedure: (§1) 8 LHPP promoter-targeting saRNAs were individually transfected into liver cancer cells at 10 nM for 72 h. In FIG. 6A, the expression level of LHPP mRNA was analyzed by RT-qPCR. In FIG. 6B, cell viability in the saRNA treatment group was evaluated by the CCK-8 method and recorded as a percentage relative to the viability of cells in a control (Mock) treatment group.
(§2) The cell viability was detected by the following CCK-8 method: the cCells were plated into a 96-well plate at 3-5×10^3 cells/well, cultured overnight, and transfected with the oligonucleotide duplexes. After 72 hour of transfection, 10 uL of CCK-8 solution (Dojindo Molecular Technologies) was added into each well. After 1 hour of incubation at 37° C., a microplate reader was used to measure absorbances at 450 nm. […]

SK-HEP-1 cells = assay: Cell viability by CCK-8 method, SK-HEP-1; details: SK-HEP-1, 10 nM, 72 h, FIG. 6B
Procedure: as §1, §2

[1] = test system: bladder cancer cell line T24; assay: Cell viability by CCK-8 method, T24; details: T24, 10 nM, 72 h, FIG. 7B
Procedure: as §1, with “into” for “into liver”, “7A,” for “6A,”, “7B,” for “6B,”
(§3) The cell viability was detected by the following CCK-8 method: the cCells were plated into a 96-well plate at 3-5×10^3 cells/well, cultured overnight, and transfected with the oligonucleotide duplexes. After 72 hour of transfection, 10 uL of CCK-8 solution (Dojindo Molecular Technologies) was added into each well. After 1 hour of incubation at 37° C., a microplate reader was used to measure absorbances at 450 nm.
(§4) In order to further evaluate the effect of LHPP saRNAs in inducing the mRNA expression of the LHPP gene and inhibiting the proliferation of cancer cells, eight screened saRNAs (RAG7-132, RAG7-133, RAG7-139, RAG7-177, RAG7-178, RAG7-694, RAG7-707 and RAG7-892) each were transfected into the liver cancer cell lines Huh7 (Medical Cell Resource Center, Tohoku University, Japan), HepG2 (ATCC), Hep3B (ATCC), Li-7 (Medical Cell Resource Center, Tohoku University, Japan) and SK-HEP-1 (ATCC), a lung cancer cell line A549 (ATCC), a bladder cancer cell line T24 (ATCC), a prostatic cancer cell line PC3 (ATCC), and a glioma cell line U87MG (ATCC). The mRNA expression and cell viability of the transfected cells were measured.

glioma cell line U87MG = assay: Cell viability by CCK-8 method, U87MG; details: 10 nM, 72 h, FIG. 7B
Procedure: as §1, with “into” for “into liver”, “7A,” for “6A,”, “7B,” for “6B,”
as §3, §4

U87MG cells = assay: saRNA in combination with chemical drugs, CCK-8 viability and combination index (Compusyn), U87MG
Procedure: The sRNAs were transfected into cancer cells at different concentrations in combination with different chemical drugs. In FIG. 9A, cell viability in the saRNA treatment group was evaluated by the CCK-8 method and recorded as a percentage relative to the viability of cells in a control (Mock) treatment group. In FIG. 9B, Compusyn© version 1.0 software was used to draw a combination index graphs; and to calculate combination index values as shown in FIG. 9C.
The compounds used in the study included: Sorafenib (Sora) (SELLECK, S1040), Lenvatinib (Lenv) (SELLECK, S1164), Regorafenib (Rego) (SELLECK, S1178), and Cabozantinib (Cabo) (SELLECK, S1119). Cells were transfected with each candidate saRNAs at varying concentration gradients for 24 hours. Thereafter, the aforementioned compounds were added to the transfected cells at a concentration of 5 μM and the cells were incubated with the compounds for 48 hours. Cell viability was measured using the CCK-8 method. Compusyn© version 1.0 software (ComboSyn, Inc. Paramus, N.J., USA) was used to analyze the combination index (CI) of drugs, wherein CI<1 represented a synergistic effect, CI=1 represented an additive effect, and CI>1 represented an antagonistic effect.

## RAG7-133: saRNA duplex; sense GCUCUUUGUCCGCUGAUCUTT (SEQ ID NO: 1), antisense AGAUCAGCGGACAAAGAGCTT (SEQ ID NO: 165) (sugars from the 5' end r19 d2, backbone not given here)
HepG2 cells
  cell proliferation (cell viability, CCK-8): inhibited cell proliferation
SK-HEP-1 cells
  cell proliferation (cell viability, CCK-8): inhibited cell proliferation
[1]
  cell proliferation (cell viability, CCK-8): inhibited cell proliferation
Glioma cell line U87MG
  cell proliferation (cell viability, CCK-8): inhibited cell proliferation
U87MG cells; saRNA 1.0 nM to 100 nM with Cabozantinib 5 μM
  combination index (CI): < 0.1
U87MG cells; saRNA 1.0 nM to 100 nM with Lenvatinib 5 μM
  combination index (CI): < 0.1
U87MG cells; saRNA with all the four compounds (Sorafenib, Lenvatinib, Regorafenib, Cabozantinib) 5 μM
  combination index (CI): < 1
